Key:
[1] = system: CCl4 intoxicated mice; test: Effect on SGPT level of CCl4-intoxicated mice (pretreatment, Table 1); type: in vivo, mice (male Kunming strain)
Procedure: (§1) Male Kunming strain mice weighing 18-22 grams were used throughout the experiments. The compound to be tested was suspended in 5% Tween 80 and given orally by gavage. The vehicle of 5% Tween 80 solution was administered to control mice via the same route. In the vitro experiments,the compound was dissolved in dimethylformamide and added directly into the incubation mixture.
(§2) The parameters adopted for hepatotoxicicity included serum tranaminase (SGPT), liver triglycerides, and pathological examination of liver tissues. The liver lesions were scored mainly by the extent of inflammation and necrosis and graded from 0 to 4.
Mice were divided into several groups.
The control group received the vehicle. The other groups were given two doses of the compound (250 mg/kg) at an interval of 8 h, respectively. All the mice were injected ip 10 ml/kg of 0.1% CCl4 in vegetable oil 24 h after the last administration of the compound. The mice were fasted for 16 h and sacrificed by decapitation. SGPT and liver lipids were determined. A piece of liver was processed into sectins for pathological examination.

[2] = system: CCl4 hepatotoxicity in mice; test: Therapeutic effect on CCl4 (0.15%) hepatotoxicity in mice (Table 2); type: in vivo, mice (male Kunming strain)
Procedure: as §1, §2
In the experiments of anti-CCl4 hepatotoxicity, mice were first injected 10 ml/kg of 0.15% CCl4 in vegetable oil every other day for three doses. The treatment of mice with the compound (250 mg/kg daily) started from the second to fifth day after the first injection of CCl4. The determination of SGPT and pathological examination of liver tissues were performed on day 7 of the experiment.

[3] = system: CCl4 hepatotoxicity in mice; test: Protective action against CCl4 (0.1%) hepatotoxicity in mice (Table 3); type: in vivo, mice (male Kunming strain); conditions: for SGPT (± SE): two doses, 9 per group, control 3016 ± 23; for SGPT (± SE) / Liver lipids: CCl4 0.1% 10 ml/kg i.p.; for Liver lipids: control 21.0 ± 4.2; for decreasing SGPT level and liver injuries (in words): CCl4 0.1% ip
Procedure: as §1, §2
In another experiment, mice were first administered two doses of the compound and injected ip 10 ml/kg of 0.1% CCl4 in vegetable oil 24 h after administration of the second dose.

[4] = system: thioacetamide hepatotoxicity in mice; test: Protective action against thioacetamide hepatotoxicity in mice (Table 4); type: in vivo, mice (male Kunming strain)
Procedure: as §1, §2
In the experiment of thioacetamide hepatotoxicity, mice were treated according to the procedure of CCl4 intoxication as described above except that thioacetamide 50 mg/kg was injected instead of CCl4.

[5] = system: acetaminophen hepatotoxicity in mice; test: Anti-acetaminophen hepatotoxicity experiment in mice; type: in vivo, mice (male Kunming strain); conditions: 250 mg/kg two doses first day and same dose second day; acetaminophen 150 mg/kg ip
Procedure: as §1, §2
In the anti-acetaminophen hepatotoxicity experiment, mice received two doses (250 mg/kg) of the compound on the first day and the same dose on the second day. A dose of 150 mg/kg of acetaminophen was injected ip 6 h after the last dose of the compound, SGPT was determined and liver tissues were examined 20 h after acetaminophen injection.

[6] = system: serum and liver transaminase (GPT); test: Effect on serum and liver transaminase (GPT) levels of normal mice (Table 5); type: in vivo, mice (male Kunming strain)
Procedure: as §1
Groups of mice were administered the vehicle or 250 mg/kg of the compound once daily for 7 consecutive days. The serum and liver GPT were determined 24 h after the last dose administration.

[7] = system: CCl4-initiated lipid peroxidation of liver microsomes (MDA); test: CCl4-initiated lipid peroxidation of liver microsomes, MDA formation in vitro (Table 6); type: biochemical, mice (phenobarbital-induced); conditions: 1 mM compound
Procedure: as §1
(§3) CCl4 hepatotoxicity has been considered to be due to formation of free radicals which initiate lipid peroxidation or covalent binding to macromolecules of microsomes. Thus, the structures and function of cell membranes were destroyed. The effect of the compound on CCl4 induced lipid peroxidation (malonic dialdehyde, MDA, in vitro, and diene conjugates in vivo) and ^14 CCl4 covalent binding to lipids and proteins of microsomes were investigated.
MDA formation: The compound was pre-incubated with NADPH-reduced liver microsomes from phenobarbital-induced mice at 37° C. for 15 minutes, 10 ul of CCl4 (diluted with 20 volume of ethanol) was added into the incubation mixture, reincubated for 20 minutes. The production of MDA was determined by the method of thiobarbituric acid.

[8] = system: diene conjugates in liver microsomes of CCl4-intoxicated mice; test: CCl4-initiated lipid peroxidation, diene conjugates in vivo (Table 6); parameters: species or system mice (male Kunming strain); conditions: 250 mg/kg, 1 ml/kg CCl4
Procedure: as §1, §3
Diene conjugates: Mice were given two doses of 250 mg/kg of the compound on the first day and followed by the same dose on the second day and then received an injection of 1 ml/kg of CCl4. The mice were killed 1 h after the CCl4 injection. The diene conjugates in liver microsomes were extracted with chloroform-methanol (2:1) and washed with methanol 0.9% NaCl solution. The absorption of diene conjugates in the chloroform layer at 243 nm was measured with spectrophotometer.

[9] = system: microsomal lipids; test: 14CCl4 covalent binding to microsomal lipids; type: biochemical, mice; conditions: 1 mM, NADPH-reduced liver microsomes
Procedure: as §1, §3
(§4) The condition of incubation was similar to that of MDA production. The compound was pre-incubated with NADPH-reduced liver microsomes for 10 minutes. The final concentration of the compound was 1 mM. ^14 CCl4 0.5 uci was added to the incubation mixture. Incubation was continued for another 60 minutes. The radio-activity of ^14 CCl4 in microsomal lipids and proteins was separated by the method of extraction of diene conjugates and counted by liquid scintillation.

[10] = system: microsomal proteins; test: 14CCl4 covalent binding to microsomal proteins; type: biochemical, mice; conditions: 1 mM, NADPH-reduced liver microsomes
Procedure: as §1, §3, §4

[11] = system: liver; test: Liver weight and microsomal protein content (Table 7); type: in vivo, mice (male Kunming strain)
Procedure: as §1
(§5) The liver microsomal cytochrome P-450 plays a key role in the detoxification of xenobiotics. […] Mice were administered 250 mg/kg of the compound once daily for 3 days. The control mice received the vehicle. The mice were killed after fasting overnight. Liver microsomes were prepared and microsomal monooxygenases were determined.

[12] = system: hepatic microsomal cytochrome P-450; test: Induction of hepatic microsomal cytochrome P-450 in mice (Table 7); type: in vivo, mice (male Kunming strain); conditions: for hepatic cytochrome P-450 (in words): 250 mg/kg once daily, 3 days
Procedure: as §1, §5
(§6) In another experiment, mice were given a dose of 250 mg/kg of the compound. Sodium pentobarbital (50 mg/kg) was injected ip 1 and 24 h after administration of the compound. The sleeping time was estimated by recording the interval of disappearance and recovery of righting reflex. […] It means that the prolongation of pentobarbital sleeping time by the compound was due to the inhibition of liver drug metabolism enzyme.

[13] = system: NADPH-cytochrome c reductase; test: Hepatic NADPH-cytochrome c reductase in mice (Table 7); type: in vivo, mice (male Kunming strain)
Procedure: as §1, §5

[14] = system: cytochrome b5; test: Hepatic cytochrome b5 in mice (Table 7); type: in vivo, mice (male Kunming strain)
Procedure: as §1, §5

[15] = system: aminopyrine demethylase; test: Hepatic aminopyrine demethylase in mice (Table 7); type: in vivo, mice (male Kunming strain)
Procedure: as §1, §5

[16] = system: benzo(a)pyrene hydroxylase; test: Hepatic AHH / benzo(a)pyrene hydroxylase in mice (Table 7); type: in vivo, mice (male Kunming strain)
Procedure: as §1, §5

[17] = system: pentobarbital sleeping time in mice; test: Pentobarbital sleeping time in mice (Table 8); type: in vivo, mice (male Kunming strain); conditions: for Sleeping time (X ± SE): 250 mg/kg, 10 per group, control 71 ± 7, P <0.01, in min (unit assumed)
Procedure: as §1, §6

[18] = system: barbital sleeping time in mice; test: Barbital sleeping time in mice (Table 8); type: in vivo, mice (male Kunming strain)
Procedure: as §1
as §6, with “Sodium pentobarbital (50 mg/kg) was injected ip 1 and 24 h after administration of the compound.” left out

[19] = listed as compound of the general formula (I), R1 =H, R2 =CH3

CN(CCc1ccccc1)C(=O)C(O)C(O)c1ccccc1 (stereo not shown) [Compound, 2,3-dihydroxy-N-methyl-3-phenyl-N-(2-phenylethyl)-propionic acid amide]
SGPT (X ± SE) ([1]; 250 mg/kg × 2, oral, 0.1% CCl4 10 ml/kg ip 24 h later, 9 per group, control 1678 ± 261, P <0.05): 727 ± 266 unit %
effect on elevated SGPT of CCl4-intoxicated mice (in words) ([1]; 250 mg/kg × 2, CCl4 ip): significantly decreased the elevated SGPT
hepatoprotective action against CCl4 (conclusion, in words) ([1]; mouse, in vivo): has hepatoprotective action against CCl4
effect on liver lesions (in words) ([2]; 250 mg/kg daily, day 7 examination): no effect on liver lesions
SGPT lowering action (in words) ([2]; 250 mg/kg daily, second to fifth day after first CCl4): significant SGPT lowering action
SGPT (x ± SE) ([2]; 250 mg/kg/day × 4, CCl4 0.15% in vegetable oil 10 ml/kg × 3, 8 per group, control 2695 ± 110, P <0.01): 1801 ± 312 unit %
SGPT (± SE) ([3]; 125 mg/kg): 2727 ± 162 unit %
Liver lipids ([3]; 125 mg/kg): 21.0 ± 3.8 mg/g
decreasing SGPT level and liver injuries (in words) ([3]; 125 mg/kg): without effect
SGPT (± SE) ([3]; 250 mg/kg, footnote <0.01): 2270 ± 221 unit %
Liver lipids ([3]; 250 mg/kg): 22.5 ± 5.5 mg/g
decreasing SGPT level and liver injuries (in words) ([3]; 250 mg/kg): effective for decreasing SGPT level and liver injuries
Liver lesions, Inflammation (Grade) ([3]; 250 mg/kg, graded from 0 to 4, control 1.70): 0.16 Grade
Liver lesions, Necrosis (Grade) ([3]; 250 mg/kg, graded from 0 to 4, control 2.33): 0.72 Grade
SGPT (± SE) ([4]; 250 mg/kg × 2, thioacetamide 50 mg/kg ip, 9 per group, control 1696 ± 231, footnote <0.05): 1045 ± 166 unit %
Liver lipids (± SE) ([4]; 250 mg/kg × 2, thioacetamide 50 mg/kg ip, control 61 ± 11.7): 59 ± 11.3 mg/g
protection against thioacetamide hepatotoxicity (conclusion, in words) ([4]; mouse, in vivo): protected against thioacetamide hepatotoxicity
effect on SGPT levels, thioacetamide hepatotoxicity (in words) ([4]; thioacetamide 50 mg/kg): markedly lowered the SGPT levels
anti-acetaminophen hepatotoxicity (in words) [5]: inactive
SGPT level of normal mice (in words) ([6]; 250 mg/kg once daily, 7 days): slightly higher than that of the control but the difference was not significant
SGPT (± SE) ([6]; normal mice, 250 mg/kg/day × 7, 8 per group, control 217 ± 17.5): 272 ± 27.8 unit %
LGPT (liver GPT, ± SE) ([6]; normal mice, 250 mg/kg/day × 7, 8 per group, control 260 ± 11.6): 234 ± 13.6 unit %
Inhibition of MDA [7]: 16.3%
MDA production / lipid peroxidation of microsomes induced by CCl4 (in words) [7]: inhibited MDA production initiated by CCl4 in vitro
MDA production / lipid peroxidation of microsomes induced by CCl4 (in words) [7, 19]: could inhibit lipid peroxidation
MDA ([7]; number of determinations 3, control 35.5): 29.7 ± 4 OD × 100/1.5 mg
diene conjugates production in livers (in words) ([8]; two doses first day and same dose second day): would not inhibit diene conjugates production
Diene conjugates ([8]; in vivo, number of determinations 8, control 55.8 ± 2.3): 54.8 ± 3.3 OD × 100/g liver
covalent binding of 14CCl4 to microsomal lipids (in words) [9]: not inhibited
covalent binding of 14CCl4 to microsomal proteins (in words) [10]: not inhibited
Liver weight ([11]; 250 mg/kg day × 3, 6 per group, control 4.0 ± 0.2, P >0.05): 4.3 ± 0.2 g %
Microsomal protein ([11]; 250 mg/kg day × 3, control 6.3 ± 0.3, P >0.05): 7.0 ± 0.5 mg/g liver
increase of liver size (in words) ([11]; 250 mg/kg once daily, 3 days): not seen
increase of microsomal protein content (in words) ([11]; 250 mg/kg once daily, 3 days): not seen
Cytochrome P-450 ([12]; 250 mg/kg day × 3, control 0.87 ± 0.07, P <0.01): 1.23 ± 0.06 nmol/mg protein
hepatic cytochrome P-450 (in words) [12]: increased significantly
hepatic cytochrome P-450 (in words) [12, 19]: inducing action on hepatic cytochrome p-450
biphasic actions on hepatic microsomal cytochrome p-450 (in words) ([12]; concluded from barbiturate sleeping times): inhibition followed by induction
NADPH-cytochrome C reductase ([13]; 250 mg/kg day × 3, control 103 ± 2.5, P <0.01): 148 ± 2.5 nmol cytochrome c reduced/min/
NADPH-cytochrome c reductase activity (in words) ([13]; 250 mg/kg once daily, 3 days): increased significantly
Cytochrome b5 ([14]; 250 mg/kg day × 3, control 0.15 ± 0.01, P >0.05): 0.16 ± 0.016 nmol/mg protein
cytochrome b5 (in words) ([14]; 250 mg/kg once daily, 3 days): increased significantly
Aminopyrine demethylase ([15]; 250 mg/kg day × 3, control 81 ± 63, P <0.01): 107 ± 5.8 nmol HCHO/min/mg protein
aminopyrine demethylase activity (in words) ([15]; 250 mg/kg once daily, 3 days): increased significantly
AHH ([16]; 250 mg/kg day × 3, control 2.6 ± 0.4, P <0.01): 6.2 ± 0.42 nmol/min/mg protein
benzo(a)pyrene hydroxylase activity (in words) ([16]; 250 mg/kg once daily, 3 days): increased significantly
Sleeping time (X ± SE) ([17]; 1 h before pentobarbital 50 mg/kg ip): 132 ± 13
Sleeping time (X ± SE) ([17]; 24 h before pentobarbital 50 mg/kg ip): 45 ± 6
pentobarbital sleeping time (in words) ([17]; compound 1 h prior to pentobarbital): prolonged markedly
pentobarbital sleeping time (in words) ([17]; compound 24 h before pentobarbital): shortened significantly
Sleeping time (X ± SE) ([18]; 1 h before barbital 200 mg/kg, 10 per group, control 197 ± 27, P >0.05): 172 ± 13
barbital sleeping time (in words) ([18]; prior administration of compound): did not affect sleeping time

— patent US4826873A, “2,3-dihydroxy-3-phenyl-N-(2-phenyl-ethyl)-propionic acid amides derivatives thereof” (priority 1986, dated 1989)
